According to ChEMBL document CHEMBL3745662, “Preliminary investigation of 6,7-dihydropyrazolo[1,5-a]pyrazin-4-one derivatives as a novel series of mGlu5 receptor positive allosteric modulators with efficacy in preclinical models of schizophrenia” (Bioorg Med Chem Lett, 2016):

Assays:
Assay type in all cases: functional, cell-based
[1] = molecular target: T1, Metabotropic glutamate receptor 5 (Homo sapiens, UniProt P41594); test: Positive allosteric modulation of human mGlu5 expressed in HEK293 cells assessed as glutamate-induced calcium mobilization; details: read-out: EC50
Target sequence in this assay (P41594 whole entry): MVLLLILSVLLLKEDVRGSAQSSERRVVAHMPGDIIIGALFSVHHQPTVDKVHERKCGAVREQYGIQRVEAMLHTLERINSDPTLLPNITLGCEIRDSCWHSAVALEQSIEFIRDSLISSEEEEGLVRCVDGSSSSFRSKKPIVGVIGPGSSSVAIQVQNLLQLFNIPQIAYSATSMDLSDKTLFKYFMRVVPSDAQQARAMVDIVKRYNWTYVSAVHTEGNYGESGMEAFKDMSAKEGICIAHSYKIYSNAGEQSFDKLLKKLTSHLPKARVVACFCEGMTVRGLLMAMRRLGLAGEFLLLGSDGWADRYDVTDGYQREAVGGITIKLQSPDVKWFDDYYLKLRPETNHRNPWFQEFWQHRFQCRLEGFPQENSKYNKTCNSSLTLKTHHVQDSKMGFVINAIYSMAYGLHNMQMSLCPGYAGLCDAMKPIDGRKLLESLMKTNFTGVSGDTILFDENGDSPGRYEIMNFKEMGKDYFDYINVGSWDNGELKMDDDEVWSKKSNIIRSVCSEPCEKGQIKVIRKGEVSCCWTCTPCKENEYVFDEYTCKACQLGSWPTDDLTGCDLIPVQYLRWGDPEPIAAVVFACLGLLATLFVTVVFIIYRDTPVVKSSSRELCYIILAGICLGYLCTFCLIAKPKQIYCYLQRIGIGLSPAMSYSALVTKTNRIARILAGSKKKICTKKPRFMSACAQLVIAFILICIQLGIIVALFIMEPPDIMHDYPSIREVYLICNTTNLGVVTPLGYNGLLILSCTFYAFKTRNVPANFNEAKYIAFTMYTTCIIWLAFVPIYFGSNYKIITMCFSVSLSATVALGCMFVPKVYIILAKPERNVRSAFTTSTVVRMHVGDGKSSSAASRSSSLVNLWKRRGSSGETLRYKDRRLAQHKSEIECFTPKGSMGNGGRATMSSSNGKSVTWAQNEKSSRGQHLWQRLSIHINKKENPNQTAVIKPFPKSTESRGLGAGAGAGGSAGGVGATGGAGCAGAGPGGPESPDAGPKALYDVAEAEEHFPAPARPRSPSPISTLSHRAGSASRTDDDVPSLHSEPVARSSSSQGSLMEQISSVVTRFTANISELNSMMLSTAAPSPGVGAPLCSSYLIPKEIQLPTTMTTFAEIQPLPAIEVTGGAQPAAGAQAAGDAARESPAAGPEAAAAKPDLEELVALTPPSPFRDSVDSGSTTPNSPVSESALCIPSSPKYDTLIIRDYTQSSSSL

[2] = molecular target: T1, Metabotropic glutamate receptor 5; test: Positive allosteric modulation of human mGlu5 expressed in HEK293 cells assessed as glutamate-induced calcium mobilization relative to glutamate
Target sequence in this assay (P41594 21-1212 limits assumed): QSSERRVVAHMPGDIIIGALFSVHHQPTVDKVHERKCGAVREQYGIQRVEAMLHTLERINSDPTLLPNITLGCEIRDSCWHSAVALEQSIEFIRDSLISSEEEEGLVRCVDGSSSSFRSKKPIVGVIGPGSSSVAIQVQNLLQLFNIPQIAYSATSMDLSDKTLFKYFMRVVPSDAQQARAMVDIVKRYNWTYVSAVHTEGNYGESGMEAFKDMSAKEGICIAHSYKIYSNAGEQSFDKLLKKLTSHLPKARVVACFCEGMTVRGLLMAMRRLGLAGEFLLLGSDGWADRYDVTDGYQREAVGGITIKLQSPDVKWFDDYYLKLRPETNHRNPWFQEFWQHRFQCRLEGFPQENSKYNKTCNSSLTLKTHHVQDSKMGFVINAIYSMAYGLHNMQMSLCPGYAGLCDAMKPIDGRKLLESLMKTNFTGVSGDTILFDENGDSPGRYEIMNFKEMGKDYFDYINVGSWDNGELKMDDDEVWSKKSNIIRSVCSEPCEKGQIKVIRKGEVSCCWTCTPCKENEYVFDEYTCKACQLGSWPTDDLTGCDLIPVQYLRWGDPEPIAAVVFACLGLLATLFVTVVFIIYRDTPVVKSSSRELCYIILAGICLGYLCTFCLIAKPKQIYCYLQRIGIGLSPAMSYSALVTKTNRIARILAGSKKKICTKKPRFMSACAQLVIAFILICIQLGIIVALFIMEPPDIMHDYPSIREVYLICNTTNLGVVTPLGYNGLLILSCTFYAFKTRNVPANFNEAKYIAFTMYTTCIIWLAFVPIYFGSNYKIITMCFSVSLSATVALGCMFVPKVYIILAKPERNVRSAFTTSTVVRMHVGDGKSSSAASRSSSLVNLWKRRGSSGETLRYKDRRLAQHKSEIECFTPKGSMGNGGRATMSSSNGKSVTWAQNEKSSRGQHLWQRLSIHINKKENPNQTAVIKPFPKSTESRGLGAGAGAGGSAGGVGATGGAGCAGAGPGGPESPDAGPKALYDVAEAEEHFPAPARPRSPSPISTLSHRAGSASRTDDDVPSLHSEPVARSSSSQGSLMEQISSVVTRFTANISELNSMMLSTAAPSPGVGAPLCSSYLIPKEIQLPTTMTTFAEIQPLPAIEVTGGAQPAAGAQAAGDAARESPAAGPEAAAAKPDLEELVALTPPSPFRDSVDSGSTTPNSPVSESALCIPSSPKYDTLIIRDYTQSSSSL

[3] = molecular target: Metabotropic glutamate receptor 3 (Homo sapiens, UniProt Q14832); test: Antagonist activity at human mGlu3 expressed in HEK293 cells assessed as inhibition of glutamate-induced calcium mobilization
Sequence of Metabotropic glutamate receptor 3 (Q14832 whole entry): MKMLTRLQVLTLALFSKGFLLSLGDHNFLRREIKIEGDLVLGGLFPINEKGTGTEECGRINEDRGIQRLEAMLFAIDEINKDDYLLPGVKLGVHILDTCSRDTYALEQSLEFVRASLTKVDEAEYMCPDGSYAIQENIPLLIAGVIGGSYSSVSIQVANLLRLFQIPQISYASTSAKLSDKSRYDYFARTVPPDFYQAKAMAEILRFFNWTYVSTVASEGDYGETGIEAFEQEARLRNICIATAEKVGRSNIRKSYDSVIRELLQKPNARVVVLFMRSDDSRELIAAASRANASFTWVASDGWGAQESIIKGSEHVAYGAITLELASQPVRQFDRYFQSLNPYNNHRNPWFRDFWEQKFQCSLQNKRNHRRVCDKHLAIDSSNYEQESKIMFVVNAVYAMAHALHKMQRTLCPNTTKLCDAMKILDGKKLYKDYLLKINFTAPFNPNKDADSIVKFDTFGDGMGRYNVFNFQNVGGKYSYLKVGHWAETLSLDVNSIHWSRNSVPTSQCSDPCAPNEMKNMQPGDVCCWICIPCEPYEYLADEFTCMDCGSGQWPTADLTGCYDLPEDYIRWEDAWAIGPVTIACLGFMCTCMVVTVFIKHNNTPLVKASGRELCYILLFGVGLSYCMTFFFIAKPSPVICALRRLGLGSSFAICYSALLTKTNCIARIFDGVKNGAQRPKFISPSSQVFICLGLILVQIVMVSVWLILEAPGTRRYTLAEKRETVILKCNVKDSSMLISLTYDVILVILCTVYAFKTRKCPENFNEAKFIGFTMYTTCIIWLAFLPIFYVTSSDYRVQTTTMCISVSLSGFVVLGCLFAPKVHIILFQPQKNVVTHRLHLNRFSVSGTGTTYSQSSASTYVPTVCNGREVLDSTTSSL

| SMILES | EC50 [1] | Emax [2] | EC50 [3] |
| --- | --- | --- | --- |
| O=C1c2cc(COc3ccccc3)nn2CCN1c1ccc(F)cc1 | 65 nM | 79% | 74 nM |
| O=C1c2cc(COc3ccccc3)nn2CCN1c1ncc(F)cn1 | 760 nM | 72% |  |
| O=C1c2cc(COc3cccnc3)nn2CCN1c1ccc(F)cc1 | 3980 nM | 69% |  |
| O=C1c2cc(COc3ccncc3)nn2CCN1c1ccc(F)cc1 | 690 nM | 69% |  |
| O=C1c2cc(COc3ccccc3)nn2CCN1c1ccc(F)cc1F | 100 nM | 101% |  |
| O=C1c2c(Cl)c(COc3ccccc3)nn2CCN1c1ccc(F)cc1 | > 30000 nM |  |  |
| O=C1c2cc(COc3ccccc3)nn2CCN1c1ccccn1 | 760 nM | 69% |  |
| COc1ccc(N2CCn3nc(COc4ccccc4)cc3C2=O)nc1 | 620 nM | 74% |  |
| Cc1c(COc2ccccc2)nn2c1C(=O)N(c1ccc(F)cc1)CC2 | 1230 nM | 32% |  |
| O=C1c2cc(COc3ccccc3F)nn2CCN1c1ccc(F)cc1 | 150 nM | 66% |  |
| O=C1c2cc(COc3ccccc3)nn2CCN1c1ccncc1 | 2090 nM | 72% |  |
| Cc1ccc(N2CCn3nc(COc4ccccc4)cc3C2=O)nc1 | 190 nM | 76% |  |
| O=C1c2cc(COc3ccccc3)nn2CCN1c1ccc(F)c(F)c1 | 87 nM | 81% |  |
| Cc1ccc(N2CCn3nc(COc4ccccc4)cc3C2=O)cc1 | 71 nM | 65% | 150 nM |
| O=C1c2cc(OCc3ccccc3)nn2CCN1c1cc(F)ccn1 | > 30000 nM |  |  |
